A value given as a limit tells only on which side of the number the result lay.

System in the first series: not listed separately
Kind of series: AUC (0 to 12 hrs) in male C57BL/6N mouse at 10 mg/kg, sc measured after 12 hrs by LC-MS analysis. To be noted: in vivo. The format is ADME, organism-based.
As usually defined, the AUC(0-t) is exposure summed from dosing to a finite time, without extrapolation to infinity. For the compound `O=C(N[C@H](Cc1ccccc1)C(=O)O)c1cccc(OCc2cccnc2)c1`, the area under the curve AUC(0-t) at 12 h came to 591 ng·h/mL.

System in the next series: not listed separately
Kind of series: Cmax in male C57BL/6N mouse at 1 mg/kg, iv measured after 8 hrs by LC-MS analysis. The format is ADME, organism-based. The note with it: in vivo.
One may read the Cmax as the highest concentration seen after dosing. On to `O=C(N[C@H](Cc1ccccc1)C(=O)O)c1cccc(OCc2cccnc2)c1`, for which the highest concentration (Cmax) came to 45.3 ng/mL.

System in the next series: not listed separately
Kind of series: Metabolic stability in Sprague-Dawley rat liver microsomes assessed as intrinsic clearance measured after 60 mins in presence of NADPH regenerating system by HPLC analysis. Format: ADME, Microsome. The note with it: 1 h. Background: Microsomes from liver hold many membrane-bound enzymes, among them those of drug oxidation.
`O=C(N[C@H](Cc1ccccc1)C(=O)O)c1cccc(OCc2cccnc2)c1`: the CLint was 1.68 µL/min/mg.

System in another series: not listed separately
Kind of series: Drug concentration in male C57BL/6N mouse plasma at 1 mg/kg, iv measured after 8 hrs by LC-MS analysis. Format: ADME, organism-based.
Settings: not given
Compound `O=C(N[C@H](Cc1ccccc1)C(=O)O)c1cccc(OCc2cccnc2)c1` showed a concentration at 8 h of 2.4 ng/mL.

System in another series: not listed separately
Kind of series: Aqueous solubility of compound in PBS at pH 7.4 measured after 24 hrs by microplate analysis. Format: physicochemical. To be noted: buffer, pH 7.4, 24 h.
With `O=C(N[C@H](Cc1ccccc1)C(=O)O)c1cccc(OCc2cccnc2)c1`, the solubility result is given as “>= 3000 uM”.

The next series deals with T1, Probable G-protein coupled receptor 132 (Homo sapiens, UniProt Q9UNW8).
T1 sequence (Q9UNW8 whole entry): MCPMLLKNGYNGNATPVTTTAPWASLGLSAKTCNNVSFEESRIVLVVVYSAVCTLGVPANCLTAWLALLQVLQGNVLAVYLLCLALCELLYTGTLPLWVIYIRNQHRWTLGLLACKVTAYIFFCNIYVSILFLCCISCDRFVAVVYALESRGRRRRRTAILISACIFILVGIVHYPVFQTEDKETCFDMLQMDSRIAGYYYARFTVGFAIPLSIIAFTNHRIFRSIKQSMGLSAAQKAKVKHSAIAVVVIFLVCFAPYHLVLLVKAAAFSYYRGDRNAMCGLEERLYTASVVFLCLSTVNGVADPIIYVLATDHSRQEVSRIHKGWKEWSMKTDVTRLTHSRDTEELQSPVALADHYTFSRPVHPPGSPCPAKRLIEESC
Settings: not given
The EC50 is the concentration giving half of the maximal effect. For the compound `CCC[C@@H](NC(=O)c1cccc(OCc2cccnc2)c1)C(=O)O`, the EC50 came to 40.6 µM. Compound `O=C(N[C@H](Cc1ccccc1)C(=O)O)c1cccc(OCc2cccnc2)c1` gave a half-maximal effective concentration (EC50) of 0.82 µM. Regarding `CCC[C@H](NC(=O)c1cccc(OCc2cccnc2)c1)C(=O)O`, the EC50 worked out at 2.92 µM. On the same count and under the same terms, the result for `CC(NC(=O)c1cccc(OCc2cccnc2)c1)(C(=O)O)c1ccccc1` (stereo unspecified) reads 6.2 µM; that for `COC[C@H](NC(=O)c1cccc(OCc2cccnc2)c1)C(=O)O`, > 100 µM; that for `O=C(NC(Cc1ccccc1)C(=O)O)c1ccc(OCc2cccnc2)cc1` (racemic), 38.2 µM. Same read-out and setting: the figure for `O=C1C2=C(CCN(Cc3ccccc3)C2)N2CCN=C2N1Cc1ccc(C(F)(F)F)cc1` is 3.92 µM; for `CC(C)[C@H](NC(=O)c1cccc(OCc2cccnc2)c1)C(=O)O` it is 7.33 µM; for `O=C(NC(Cc1ccc(F)cc1)C(=O)O)c1cccc(OCc2cccnc2)c1` (stereo unspecified) it is 1.96 µM. Regarding `O=C(N[C@@H](Cc1ccccc1)C(=O)O)c1cccc(OCc2cccnc2)c1`, the concentration for a half-maximal effect (EC50) was determined as 31.1 µM. Compound `O=C(NC(Cc1ccccc1)C(=O)O)c1cccc(OCc2ccccn2)c1` (racemic) gave a 50% effective concentration (EC50) of 11.9 µM.

For `O=C(N[C@H](Cc1ccc(C(F)(F)F)cc1)C(=O)O)c1cccc(OCc2cccnc2)c1`, the EC50 was determined as 8.71 µM. In the case of `O=C(NC(Cc1ccncc1)C(=O)O)c1cccc(OCc2cccnc2)c1` (stereo unspecified), the midpoint of the response, the EC50, lay at 49.7 µM. `O=C(NC(Cc1ccccc1Cl)C(=O)O)c1cccc(OCc2cccnc2)c1` (stereo unspecified) had an EC50 of 13.5 µM. For the compound `O=C(NC(C(=O)O)C1CC1)c1cccc(OCc2cccnc2)c1` (stereo unspecified), the 50% effective concentration (EC50) was > 100 µM. In turn, `O=C(NC(Cc1ccccc1)C(=O)O)c1cccc(OCc2ccccc2)c1` (stereo unspecified) came in with an EC50 of 7.5 µM. `CC(C)[C@@H](NC(=O)c1cccc(OCc2cccnc2)c1)C(=O)O` had a 50% effective concentration (EC50) of 64.8 µM.

As to `O=C(NC(Cc1ccccc1)C(=O)O)c1cccc(OCc2ccncc2)c1` (racemic), the EC50 was 2.87 µM.

With `CCCCC/C=C\C=C\C(O)CCCCCCCC(=O)O` (racemic), the EC50 came out at 7.5 µM.

In turn, `O=C(N[C@H](CCc1ccccc1)C(=O)O)c1cccc(OCc2cccnc2)c1` had a half-maximal effective concentration (EC50) of 12 µM. In turn, `O=C(NC(Cc1ccc(OC(F)(F)F)cc1)C(=O)O)c1cccc(OCc2cccnc2)c1` (racemic) displayed a half-maximal effective concentration (EC50) of 3.34 µM. The same measure, in the same setting: the result for `CC(c1ccccc1)C(NC(=O)c1cccc(OCc2cccnc2)c1)C(=O)O` (stereo unspecified) reads 19.6 µM; that for `O=C(N[C@H](Cc1ccc(Cl)cc1)C(=O)O)c1cccc(OCc2cccnc2)c1`, 7.53 µM. As to `O=C(N[C@@H](CC1CCCCC1)C(=O)O)c1cccc(OCc2cccnc2)c1`, the half-maximal effective concentration (EC50) was determined as 12.2 µM.

With `O=C(N[C@@H](CCc1ccccc1)C(=O)O)c1cccc(OCc2cccnc2)c1`, the EC50 turned out to be 68.5 µM. `O=C(NC(Cc1ccccc1)C(=O)O)c1cccc(OCc2cccnc2)c1` (stereo unspecified) registered an EC50 of 1.74 µM.

In turn, `CCCC(NC(=O)c1cccc(OCc2cccnc2)c1)C(=O)O` (stereo unspecified) had an EC50 of 6.87 µM.

For `C[C@H]1CC[C@@](NC(=O)c2cccc(OCc3cccnc3)c2)(C(=O)O)CC1`, a half-maximal response (EC50) required 13.2 µM.

For the compound `CCC(NC(=O)c1cccc(OCc2cccnc2)c1)C(=O)O` (stereo unspecified), the EC50 turned out to be 27.5 µM. For the compound `O=C(NC(C(=O)O)c1cccnc1)c1cccc(OCc2cccnc2)c1` (stereo unspecified), the response was half-maximal at 79.2 µM (EC50). In turn, `O=C(N[C@@H](C(=O)O)c1ccccc1)c1cccc(OCc2cccnc2)c1` had a 50% effective concentration (EC50) of 38.4 µM.

System in the next series: not listed separately
Kind of series: Metabolic stability in Sprague-Dawley rat liver microsomes assessed as parent compound remaining measured after 60 mins in presence of NADPH regenerating system by HPLC analysis. The format is ADME, Microsome. To be noted: read-out: Stability.
On to `O=C(N[C@H](Cc1ccccc1)C(=O)O)c1cccc(OCc2cccnc2)c1`, for which the remaining at 1 h amounted to 98%.

System in another series: not listed separately
The experiment in a line: Cytotoxicity against human HepG2 cells assessed as cell viability upto 100 uM incubated for 72 hrs by CellTiter-Glo assay relative to control. The note with it: read-out: Activity. Format: toxicity, cell-based.
`O=C(N[C@H](Cc1ccccc1)C(=O)O)c1cccc(OCc2cccnc2)c1`: the viability at 72 h, up to 100 µM was ≥ 90%.

As for `O=C(NC(Cc1ccccc1)C(=O)O)c1cccc(OCc2cccnc2)c1` (stereo unspecified), the viability at 72 h, up to 100 µM is ≥ 90%.

System in the next series: not listed separately
Kind of series: Tmax in male C57BL/6N mouse at 1 mg/kg, iv measured after 8 hrs by LC-MS analysis. The format is ADME, organism-based. To be noted: in vivo.
Broadly, the Tmax is the time at which the peak concentration occurs. Regarding `O=C(N[C@H](Cc1ccccc1)C(=O)O)c1cccc(OCc2cccnc2)c1`, the Tmax is 15 min.

System in a further series: not listed separately
Kind of series: AUC (0 to 8 hrs) in male C57BL/6N mouse at 1 mg/kg, iv measured after 8 hrs by LC-MS analysis. The format is ADME, organism-based. The note with it: in vivo.
For `O=C(N[C@H](Cc1ccccc1)C(=O)O)c1cccc(OCc2cccnc2)c1`, the AUC(0-t) at 8 h came to 47.3 ng·h/mL.

System in the next series: not listed separately
The experiment in a line: Drug concentration in male C57BL/6N mouse plasma at 10 mg/kg, sc measured after 12 hrs by LC-MS analysis. Format: ADME, organism-based.
Settings: not given
In the case of `O=C(N[C@H](Cc1ccccc1)C(=O)O)c1cccc(OCc2cccnc2)c1`, the concentration at 12 h worked out at 2.9 ng/mL.

Another series has as its target T1, Probable G-protein coupled receptor 132.
Settings: not given
This is another data set of the same source.
Take `O=C(N[C@H](Cc1ccccc1)C(=O)O)c1cccc(OCc2cccnc2)c1`: the EC50 is 7.7 µM.

System in another series: not listed separately
Kind of series: Clearance in male C57BL/6N mouse at 10 mg/kg, sc measured after 12 hrs by LC-MS analysis. The format is ADME, organism-based. The note with it: in vivo.
Broadly, the CL/F is clearance divided by bioavailability, as obtained after extravascular dosing. Take `O=C(N[C@H](Cc1ccccc1)C(=O)O)c1cccc(OCc2cccnc2)c1`: the apparent clearance (CL/F) is 141 mL/min/kg.

System in the next series: not listed separately
The experiment in a line: Cmax in male C57BL/6N mouse at 10 mg/kg, sc measured after 12 hrs by LC-MS analysis. Format: ADME, organism-based. To be noted: in vivo.
Regarding `O=C(N[C@H](Cc1ccccc1)C(=O)O)c1cccc(OCc2cccnc2)c1`, the Cmax came to 755 ng/mL.

System in the next series: not listed separately
The experiment in a line: Tmax in male C57BL/6N mouse at 10 mg/kg, sc measured after 12 hrs by LC-MS analysis. The note with it: in vivo. The format is ADME, organism-based.
Turning to `O=C(N[C@H](Cc1ccccc1)C(=O)O)c1cccc(OCc2cccnc2)c1`, the time of peak concentration (Tmax) was 30 min.

These data come from ChEMBL document CHEMBL5500416, “Development of a Potent and Selective G2A (GPR132) Agonist” (J Med Chem, 2024).
